Assays:
[1] = target: T1, BRD4 BD2 (Homo sapiens, UniProt O60885, Y97A); assay: BRD4 BD2 TR-FRET competition assay; type: binding; conditions: for fold selective for BRD4 BD2 over BRD4 BD1: derived from the log unit selectivity; for selectivity for BRD4 BD2 over BRD4 BD1 (BRD4 BD2 pIC50 - BRD4 BD1 pIC50): in at least one of the TR-FRET assays; for IC50: mean of n determinations, read-out: mean pIC50 in the BRD4 BD2 TR-FRET assay (converted)
T1 construct: BRD4 (1-477) (Y97A) and (Y390A); made in house; host or cells: E. coli (pET15b vector)

[2] = target: T2, BRD4 BD1 (Homo sapiens, UniProt O60885, Y390A); assay: BRD4 BD1 TR-FRET competition assay; type: binding; conditions: mean of n determinations; read-out: mean pIC50 in the BRD4 BD1 TR-FRET assay (converted)
T2 construct: BRD4 (1-477) (Y97A) and (Y390A); made in house; host or cells: E. coli (pET15b vector)

[3] = system: BET family (BRD2, BRD3, BRD4 and BRDT) mutant tandem bromodomain proteins; assay: Fluorescence Polarisation binding of Reference Compound X to single and double mutant tandem BET proteins; design: species or system Human
Method: The competition of the compounds of formula (I) with Reference Compound X for binding to the BET family (BRD2, BRD3, BRD4 and BRDT) was assessed using protein truncates spanning both bromodomain 1 (BD1) and bromodomain 2 (BD2). In order to monitor differential binding to either BD1 or BD2, single residue mutations of key tyrosines to alanine were made in the acetyl lysine binding pockets. To validate this approach, a double residue mutant tandem domain protein was produced for each of the BET family members. Utilising a Fluorescence Polarisation approach, binding affinities for each of the single and double mutants for Reference Compound X were determined. […] The affinities of the single mutated bromdomain tandem proteins for Reference Compound X were equi-potent with the corresponding non-mutated BET protein. […] In the TR-FRET competition assay, Reference Compound X is used at a concentration that is equivalent to the Kd for the non-mutated bromodomain, which ensures that no binding at the mutated bromodomain is detected. […]

| SMILES | fold selective for BRD4 BD2 over BRD4 BD1 [1] | selectivity for BRD4 BD2 over BRD4 BD1 (BRD4 BD2 pIC50 - BRD4 BD1 pIC50) [1] | IC50 [1] | IC50 [2] | fold reduction in Kd (affinity) of double mutant tandem proteins for Reference Compound X ([3]; double residue mutant versus non mutated, wild type tandem BET proteins) | fold change of Kd of the interaction between the mutated bromodomain and Reference Compound X ([3]; single mutations of Tyrosine to Alanine) |
| --- | --- | --- | --- | --- | --- | --- |
| CNC(=O)c1cc(C(=O)N[C@H]2C[C@@H]2C)cn(Cc2cccc(OCCO)c2)c1=O [Example 153, 1-(3-(2-Hydroxyethoxy)benzyl)-N3-methyl-N5-((1S,2S)-2-methylcyclopropyl)-2-oxo-1,2-dihydropyridine-3,5-dicarboxamide] | at least 100 fold | 2.7 log unit | 0.0631 µM | 31.6 µM |  |  |
| COc1ccc2c(c1)C(c1ccc(Cl)cc1)=N[C@@H](CC(=O)NCCCCCNC(=O)CCCCCC1(C)/C(=C/C=C/C=C/C3=[N+](CCCCS(=O)(=O)O)c4ccc(S(=O)(=O)O)cc4C3(C)C)N(CCCCS(=O)(=O)[O-])c3ccc(S(=O)(=O)O)cc31)c1nnc(C)n1-2 (stereo partly shown) [Reference Compound X] |  |  |  |  | > 1000 fold | > 1000 fold |
| CNC(=O)c1cc(C(=O)N[C@H]2C[C@@H]2C)cn(Cc2ccccc2)c1=O (single isomer, unassigned) [Example 102] | at least 100 fold | 2.5 log unit | 0.0251 µM | 7.94 µM |  |  |

Reference: patent US10428026B2, “Pyridinone dicarboxamide for use as bromodomain inhibitors” (GlaxoSmithKline Intellectual Property (No.2) Limited, priority 2015, dated 2019)
